Source: patent US20220259212A1, “INHIBITORS OF INDOLEAMINE 2,3-DIOXYGENASE AND/OR TRYPTOPHAN 2,3-DIOXYGENASE” (Idorsia Pharmaceuticals Ltd, priority 2019, published 2022)

Assays:
[1] = biological target: T1, IDO1 in SKOV3 cells (Homo sapiens, UniProt P14902); assay: Cell-based IDO inhibitory activity in IFNγ-stimulated SKOV3 cells (NFK + kynurenine by LCMS); settings: IFNγ 50 ng/ml, 200 uM L-tryptophan, 24 hours
T1 construct: SKOV3 cells (NCI, No. 0503405) which upregulate IDO1 after stimulation with IFNγ; host or cells: SKOV3 cells stimulated with IFNγ
Summary of the method: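 SKOV3 cells (4000/well, pre-cultured 24 h) were treated with compound (10 uM-40 nM) plus 200 uM L-tryptophan and 50 ng/ml IFNγ for 24 h at 37° C. N-formylkynurenine plus kynurenine in supernatant was measured by LCMS against a d5-tryptophan internal standard. IC50 was fitted against 0.2% DMSO and reference-inhibitor controls, in duplicate, with repeat measurements averaged.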

[2] = biological target: T2, Recombinant full-length human IDO1 (Homo sapiens, UniProt P14902); assay: IDO1 enzymatic assay (NFK quantified by LCMS); assay type: biochemical; settings: 2 nM enzyme, 5 μM L-tryptophan, 30 min pre-incubation, pH6.5; mean if measured multiple times; read-out: hIDO activity (IC50 in nM)
T2 construct: Recombinant full-length human IDO1 with a N-terminal hexahistidine tag; hexahistidine (N); made in house; host or cells: E. coli
Summary of the method: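 His-tagged full-length IDO1 (E. coli, 2 nM final) in pH 6.5 phosphate with ascorbate, methylene blue and catalase was preincubated 30 min at RT with compound (10 µM–0.5 nM, 0.6% DMSO), then run 30 min at RT with 5 µM L-Trp. NFK was measured by LCMS against a d5-Trp standard. IC50 came from a four-parameter fit of duplicates.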

[3] = biological target: T3, Recombinant human TDO comprising amino acids 19-407 (Homo sapiens, UniProt P48775); assay: TDO2 enzymatic assay (NFK quantified by LCMS); assay type: biochemical; settings: 15 nM enzyme, 200 μM L-tryptophan, 30 min pre-incubation, pH7; mean if measured multiple times; read-out: hTDO activity (IC50 in nM)
T3 construct: human TDO comprising amino acids 19-407; hexahistidine (N); made in house; host or cells: E. coli
Summary of the method: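 E. coli-expressed N-terminal His-tagged TDO (15 nM) in pH 7 phosphate buffer with ascorbate and catalase, preincubated 30 min at RT with compound (10 μM to 0.5 nM, 0.6% DMSO). Reaction started with 200 μM L-tryptophan for 30 min at RT; NFK measured by LCMS against deuterated internal standard, IC50 by four-parameter fit, duplicates.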

T3 sequence (P48775 19-406 limits assumed): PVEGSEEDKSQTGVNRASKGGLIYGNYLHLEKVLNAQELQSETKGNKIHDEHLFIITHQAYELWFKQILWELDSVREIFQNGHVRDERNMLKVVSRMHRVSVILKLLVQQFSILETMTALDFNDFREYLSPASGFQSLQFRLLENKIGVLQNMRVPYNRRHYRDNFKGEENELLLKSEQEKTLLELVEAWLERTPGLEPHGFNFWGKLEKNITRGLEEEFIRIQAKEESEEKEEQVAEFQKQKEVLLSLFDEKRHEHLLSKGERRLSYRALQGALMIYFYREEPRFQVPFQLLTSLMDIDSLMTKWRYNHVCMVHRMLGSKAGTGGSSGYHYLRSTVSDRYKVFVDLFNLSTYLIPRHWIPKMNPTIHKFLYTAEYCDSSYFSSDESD
T2 sequence (P14902 whole entry): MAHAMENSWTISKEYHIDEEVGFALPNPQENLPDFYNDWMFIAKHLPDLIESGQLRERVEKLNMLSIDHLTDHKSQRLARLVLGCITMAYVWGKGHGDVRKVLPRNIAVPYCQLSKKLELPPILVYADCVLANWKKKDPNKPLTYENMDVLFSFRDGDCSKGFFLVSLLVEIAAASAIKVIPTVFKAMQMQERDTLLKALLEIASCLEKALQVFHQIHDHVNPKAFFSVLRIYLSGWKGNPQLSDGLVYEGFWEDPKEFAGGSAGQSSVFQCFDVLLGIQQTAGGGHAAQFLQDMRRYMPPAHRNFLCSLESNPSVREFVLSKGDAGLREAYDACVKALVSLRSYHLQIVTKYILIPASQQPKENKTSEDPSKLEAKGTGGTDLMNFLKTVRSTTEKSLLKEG
T1 sequence (P14902 whole entry): as above

IC50 [1] [nM]	IC50 [2] [nM]	IC50 [3] [nM]	SMILES
56.8	15	> 10200	O[C@@H](c1cn(-c2ccc(N3CC4(COC4)C3)cc2)nn1)c1c(C2CC2)ncc2cncn12 [Example 45, (R)-(6-Cyclopropyl-imidazo[1,5-a]pyrazin-5-yl)-{1-[4-(2-oxa-6-aza-spiro[3.3]hept-6-yl)-phenyl]-1H-[1,2,3]triazol-4-yl}-methanol]
356	15.1	> 10200	O[C@@H](c1cn(-c2ccc(N3CCC34COC4)cc2)nn1)c1c(C2CC2)ncc2cncn12 [Example 46, (R)-(6-Cyclopropyl-imidazo[1,5-a]pyrazin-5-yl)-{1-[4-(6-oxa-1-aza-spiro[3.3]hept-1-yl)-phenyl]-1H-[1,2,3]triazol-4-yl}-methanol]
145	7.76	> 10200	CN1CCc2cc(-n3cc([C@H](O)c4c(C5CC5)ncc5cncn45)nn3)ccc21 [Example 47, (R)-(6-Cyclopropyl-imidazo[1,5-a]pyrazin-5-yl)-[1-(1-methyl-2,3-dihydro-1H-indol-5-yl)-1H-[1,2,3]triazol-4-yl]-methanol]
